Results as given in patent US20040220188A1, “Alkylidene pyrazolidinedione derivatives” (priority 2001, published 2004).

Experiments:
GLEPP-1 = molecular target: T1, GLEPP-1 (Homo sapiens, UniProt Q16827); assay: PTP Enzyme Assay (DiFMUP substrate), GLEPP-1; type: biochemical; conditions: catalytic core of human recombinant PTP, DiFMUP at Km; read-out: inhibition (IC50) with regard to GLEPP-1
T1 construct: using the catalytic core of a human recombinant PTP, as an enzyme; made in house
T1 sequence (Q16827 938-1195 limits assumed): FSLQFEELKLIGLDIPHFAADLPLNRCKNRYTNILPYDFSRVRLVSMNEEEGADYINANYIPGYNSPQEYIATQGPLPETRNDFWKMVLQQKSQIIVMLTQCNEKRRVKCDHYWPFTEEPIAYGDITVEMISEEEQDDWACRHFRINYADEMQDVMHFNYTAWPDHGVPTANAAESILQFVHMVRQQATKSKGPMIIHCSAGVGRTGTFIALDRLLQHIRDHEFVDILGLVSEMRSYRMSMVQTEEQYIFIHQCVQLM
Source text: (§1) (1) The PTP Enzyme Assay (In Vitro Assay)
(§2) The PTP Enzyme Assay aims at determining the extent of inhibition of the examined PTP (e.g. PTP1B, TC-PTP, PTP-β, DEP-1, LAR, SHP-1, SHP-2, GLEPP-1, PTP-κ, PTP-μ, VHR, hVH5) in the presence of a test compound. The inhibition is illustrated by IC50 values which denote the concentration necessary to achieve an inhibition of 50% of the given PTP.
(§3) The cloning and expression of the catalytic domain of PTPs (e.g. PTP1B, TC-PTP, PTP-β, DEP-1, LAR, SHP-1, SHP-2, GLEPP-1, PTP-κ, PTP-μ, VHR, hVH5) may be performed as described in J. Biol. Chem. 2000, 275(13), pp 9792-9796.
(§4) Assays were performed in a 96 well plate format, using the catalytic core of a human recombinant PTP, as an enzyme and 6,8-DiFluoro-4-MethylUmbelliferyl Phosphate (DiFMUP, Molecular Probes, D-6567) as a substrate at the Km value which was determined for each enzyme. Compounds to be tested were dissolved in 100% DMSO at a concentration of 2 mM. […] The reaction ran for 30 minutes at room temperature before reading the fluorescence intensity on a Perkin-Elmer Victor 2 spectrofluorimeter (excitation at 355 nm, emission at 460 nm, for 0.1 s). The percentage of inhibition relative to the fluorescence observed in the presence of solvent (5% DMSO) alone was determined. The IC50 values for inhibition were determined in triplicates on at least 3 separate occasions.

PTP1B = molecular target: T2, PTP1B (Homo sapiens, UniProt P18031); assay: PTP Enzyme Assay (DiFMUP substrate), PTP1B; type: biochemical; conditions: catalytic core of human recombinant PTP, DiFMUP at Km; read-out: inhibition (IC50) with regard to PTP1B
T2 construct: using the catalytic core of a human recombinant PTP, as an enzyme; made in house
T2 sequence (P18031 3-277 limits assumed): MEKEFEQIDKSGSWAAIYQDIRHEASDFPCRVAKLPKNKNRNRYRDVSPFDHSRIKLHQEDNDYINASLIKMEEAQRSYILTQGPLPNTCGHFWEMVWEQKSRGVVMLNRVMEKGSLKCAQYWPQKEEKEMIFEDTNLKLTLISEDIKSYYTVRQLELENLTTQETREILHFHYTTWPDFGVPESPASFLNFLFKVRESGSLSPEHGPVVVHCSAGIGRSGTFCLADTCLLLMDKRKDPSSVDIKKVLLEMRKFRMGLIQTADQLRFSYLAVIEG
Source text: as §1, §2, §3, §4

Row | Structure (SMILES) | IC50 (GLEPP-1) [nM] | IC50 (PTP1B) [nM]
1 | O=C1NN(c2ccc(I)cc2)C(=O)C1=Cc1ccc([N+](=O)[O-])o1 [Compound 45, 1-(4-Iodo-phenyl)-4-(5-nitro-furan-2-ylmethylene)-pyrazolidine-3,5-dione] | 47 | 
2 | O=C1NN(c2ccc(I)cc2)C(=O)C1=Cc1ccc(Br)o1 [Compound 25, 4-(5-Bromo-furan-2-ylmethylene)-1-(4-iodo-phenyl)-pyrazolidine-3,5-dione] | ~130 | 40
3 | O=C1NN(c2ccc(I)cc2)C(=O)C1=Cc1cc(Br)c(O)c2ncccc12 [Compound 35] |  | 580
